Laboratory results reported in BindingDB's records for doi:10.1021/jm9806300 (Massachusetts General Hospital, 1999).

Target: muscle nicotinic acetylcholine receptor (Mus musculus)
Assay: The compound was tested for inhibitory potency against Nicotinic acetylcholine receptor in mouse muscle.

`CCCCCC1(CCO)N=N1` [2-(3-Pentyl-3H-diazirin-3-yl)-ethanol] showed an IC50 of 33 µM.
